Test [1] concerns K562/VCR. Description: Antiproliferative activity against human K562/VCR cells after 72 hrs by CCK8 assay. Type of test: functional, cell-based.
Test [2] is described as follows: Resistance factor, ratio of IC50 for human K562/VCR cells to IC50 for human K562 cells. Type of test: functional.
A further test relates to K562. Briefly: Antiproliferative activity against human K562 cells after 72 hrs by CCK8 assay. Type of test: functional, cell-based. The following applies: K562, 72 h.
A further test relates to K562/Adr. Briefly: Antiproliferative activity against human K562/ADR cells after 72 hrs by CCK8 assay. Type of test: functional, cell-based.
A further test concerns HL-60. Briefly: Cytotoxicity against human HL60 cells. Type of test: functional, cell-based.
Test [3] relates to K562/VCR. Description: Induction of autophagy in human K562/VCR cells assessed as upregulation of beclin-1 expression at 0.05 uM after 48 hrs by Western blot method relative to beta-actin. Type of test: functional.
Test [4] concerns the target RAC-alpha serine/threonine-protein kinase (Homo sapiens) (UniProt P31749). Description: Inhibition of AKT phosphorylation in human K562/VCR cells at 0.05 uM after 48 hrs by Western blot method relative to beta-actin. Type of test: cell-based.
The test system of test [5] is K562/VCR. Description: Cell cycle arrest in human K562/VCR cells assessed as accumulation at G1 phase at 0.05 uM after 48 hrs by propidium iodide staining-based flow cytometric method (reference value: 46.20%). Type of test: functional.
Test [6] has as its system K562/VCR. Briefly: Cell cycle arrest in human K562/VCR cells assessed as accumulation at S phase at 0.05 uM after 48 hrs by propidium iodide staining-based flow cytometric method (reference value: 46.02%). Type of test: functional.
Test [7] addresses c-Jun N-terminal kinase, JNK (Homo sapiens) (UniProt P45983+P53779+P45984). Description: Induction of JNK phosphorylation in human K562/VCR cells at 0.05 uM after 48 hrs by Western blot method relative to beta-actin. Type of test: cell-based.
The subject of test [8] is K562/VCR. Briefly: Induction of apoptosis in human K562/VCR cells assessed as viable cells at 0.05 uM after 48 hrs by annexin-V-FITC/propidium iodide staining-based flow cytometric method (reference value: 91.05%). Type of test: functional. The note with it: read-out: Activity.
For test [9], the system named is K562/VCR. Description: Induction of apoptosis in human K562/VCR cells assessed as downregulation of CDK2 expression at 0.05 uM after 48 hrs by Western blot method relative to beta-actin. Type of test: functional.
In test [10] the test system is K562/VCR. Briefly: Reduction in mitochondrial membrane potential in human K562/VCR cells at 0.1 uM after 48 hrs by JC1 probe-based flow cytometric method (reference value: 2.65%). Type of test: functional. The arrangement: scale not given: the % may be the effect or the level left.
Test [11] has as its system K562/VCR. Briefly: Induction of autophagy in human K562/VCR cells assessed as upregulation of LC3-2 expression at 0.05 uM after 48 hrs by Western blot method relative to beta-actin. Type of test: functional.
In test [12] the test system is K562/VCR. Briefly: Induction of apoptosis in human K562/VCR cells assessed as upregulation of cleaved PARP expression at 0.05 uM after 48 hrs by Western blot method relative to beta-actin. Type of test: functional.
The test system of test [13] is K562/VCR. Briefly: Induction of reactive oxygen species formation in human K562/VCR cells at 0.05 uM after 24 hrs by DCFH-DA staining-based flow cytometric method (reference value: 0.41%). Type of test: functional.
The subject of test [14] is K562/VCR. Description: Downregulation of P-gp expression in human K562/VCR cells at 0.05 uM after 48 hrs by Western blot method relative to beta-actin. Type of test: functional.
For test [15], the system named is K562/VCR. Briefly: Cell cycle arrest in human K562/VCR cells assessed as accumulation at G2 phase at 0.05 uM after 48 hrs by propidium iodide staining-based flow cytometric method (reference value: 7.78%). Type of test: functional.
Test [16] has as its system K562/VCR. Description: Induction of apoptosis in human K562/VCR cells assessed as late apoptotic cells at 0.05 uM after 48 hrs by annexin-V-FITC/propidium iodide staining-based flow cytometric method (reference value: 1.90%). Type of test: functional.
The subject of test [17] is K562/VCR. Briefly: Induction of apoptosis in human K562/VCR cells assessed as early apoptotic cells at 0.05 uM after 48 hrs by annexin-V-FITC/propidium iodide staining-based flow cytometric method (reference value: 6.90%). Type of test: functional.
Test [18] concerns K562/VCR. Description: Induction of apoptosis in human K562/VCR cells assessed as necrotic cells at 0.05 uM after 48 hrs by annexin-V-FITC/propidium iodide staining-based flow cytometric method (reference value: 0.15%). Type of test: functional.
Test [19] concerns K562/VCR. Briefly: Downregulation of MRP-1 expression in human K562/VCR cells at 0.05 uM after 48 hrs by Western blot method relative to beta-actin. Type of test: functional.
Test [20] relates to K562/VCR. Description: Induction of apoptosis in human K562/VCR cells assessed as downregulation of CDK1 expression at 0.05 uM after 48 hrs by Western blot method relative to beta-actin. Type of test: functional.
For a further test, the species on record is Homo sapiens. Briefly: Inhibition of alpha-tubulin polymerization in human K562/VCR cells assessed as disruption of microtubule organization at 0.05 uM after 24 hrs by DAPI staining-based immunofluorescence assay. Type of test: cell-based.

Five molecules from ChEMBL document CHEMBL4118137, “Design, synthesis and antineoplastic activity of novel hybrids of podophyllotoxin and indirubin against human leukaemia cancer cells as multifunctional anti-MDR agents” (Bioorg Med Chem Lett, 2018) can be followed below.

Active and inactive are the calls of the source. The calls are words filed in the database; no cut-off is given here.

RAC-alpha serine/threonine-protein kinase (Homo sapiens), sequence (P31749 whole entry): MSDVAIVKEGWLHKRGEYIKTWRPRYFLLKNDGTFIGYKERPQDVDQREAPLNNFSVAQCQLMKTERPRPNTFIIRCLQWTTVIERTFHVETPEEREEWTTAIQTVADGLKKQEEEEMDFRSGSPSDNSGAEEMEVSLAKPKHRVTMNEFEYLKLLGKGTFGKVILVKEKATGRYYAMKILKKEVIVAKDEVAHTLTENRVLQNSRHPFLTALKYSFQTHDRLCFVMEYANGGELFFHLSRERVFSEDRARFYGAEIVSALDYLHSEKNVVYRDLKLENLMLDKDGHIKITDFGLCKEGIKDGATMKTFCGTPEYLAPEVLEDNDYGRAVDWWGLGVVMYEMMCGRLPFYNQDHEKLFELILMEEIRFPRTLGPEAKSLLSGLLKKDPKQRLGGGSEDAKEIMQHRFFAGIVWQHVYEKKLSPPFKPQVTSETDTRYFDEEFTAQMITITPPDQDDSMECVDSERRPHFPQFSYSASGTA

In the case of `COc1cc([C@@H]2c3cc4c(cc3[C@@H](O[C@@H]3O[C@@H]5CO[C@@H](C)O[C@H]5[C@H](O)[C@H]3O)[C@H]3COC(=O)[C@H]23)OCO4)cc(OC)c1O` [ETOPOSIDE], the figures for the half-inhibitory concentration (IC50) in the test on K562/VCR [1] and with K562 were 11.8 µM and 0.764 µM, respectively. Also, in test [2], the “Ratio IC50” value was determined as 15.49.

Consider `COc1cc([C@@H]2c3cc4c(cc3[C@H](OC(=O)CN3C(=O)C(=O)c5c(Br)cccc53)[C@H]3COC(=O)[C@H]23)OCO4)cc(OC)c1OC`, for which inhibition with K562/Adr was half-maximal at 0.067 µM (IC50).

In turn, `CN(C)CCN1C(=O)/C(=C2\Nc3ccccc3C2=O)c2ccccc21` yielded an IC50 with HL-60 of 3.56 µM.

On to `COc1cc([C@@H]2c3cc4c(cc3[C@H](O)[C@H]3COC(=O)[C@H]23)OCO4)cc(OC)c1OC` [PODOFILOX], for which the “fold change (FC)” value in the test with K562/VCR [3] was determined as 0.78; in test [4], 0.33; in [7], 1.04; in the test with K562/VCR [9], 0.37; in the test on K562/VCR [11], 0.65; with K562/VCR [12], 0.61. In addition, the entries for the “fold change (FC)” value in the test with K562/VCR [14], with K562/VCR [19] and with K562/VCR [20] were 0.27, 0.22 and 0.27, respectively. The Activity is reported as 17.81% in the test on K562/VCR [5]; 22.9% with K562/VCR [6]; 52.5% in the test with K562/VCR [10]; 45.54% in the test with K562/VCR [13]; 59.28% with K562/VCR [15]; 23.21% with K562/VCR [16]. The Activity in the test with K562/VCR [17] came to 28.1%; with K562/VCR [18], 0.08%. The viability at 0.05 µM in the test with K562/VCR [8] turned out to be 48.6%. The IC50 in the test on K562/VCR [1] worked out at 0.05 µM; in the test on K562, 0.025 µM. Further, the “Ratio IC50” value in [2] came out at 2. The inhibition entry in the test listed under Homo sapiens is “Active”.

`O=C1Nc2ccccc2/C1=C1/Nc2ccccc2C1=O` [INDIRUBIN]: the IC50 in the test with K562/VCR [1] and with K562 was greater than 100 µM in each case.
